Experimental data published in patent publication US10434147B2, “Treatment type 2 diabetes mellitus patients” (Sanofi-Aventis Deutschland GmbH, priority 2015, dated 2019).

Assays:
[1] = system: obese type 2 diabetes mellitus patients poorly controlled with a basal insulin alone or with one to three oral anti-diabetic drugs; test: 12-week insulin glargine titration (run-in); type: in vivo, human; conditions: 12 weeks titration, optionally with metformin
[2] = system: Patients with Type 2 Diabetes Insufficiently Controlled with Insulin Glargine with or without Metformin; test: Body weight, 26-week study; type: in vivo, human; conditions: once daily or three times daily; in words
Description: FIG. 6—Graphical study design. ^1 Insulin glargine should be injected subcutaneously once daily at dinner or breakfast time (according to patient's/investigators' preference). […] Meal used for insulin glulisine dosing should remain the same throughout the 26-week treatment period. ^4 Injection of insulin glulisine prior to breakfast, lunch and dinner.
Co-primary endpoints at 26 weeks were (1) non-inferiority (95% CI upper bound <0.4%) in HbA1c reduction with LIXI vs GLU-1 and (2) for LIXI vs GLU-3, either non-inferiority in HbA1c reduction (2a) OR superiority (one-sided α≤0.025) in body weight change (2b). FPG, PPG, IG dose, composite outcomes, AEs, and hypoglycemia were assessed.

Substance | fasting glucose plasma concentration after titration of insulin glargine ([1]; initial reduction from 9.16 mmol/L) | HbA1c after titration of insulin glargine ([1]; initial reduction from 8.51%) | Effect of the comparative treatment on body weight [2]
Gly(A21)-Arg(B31)-Arg(B32) human insulin [insulin glargine] | 6.91 mmol/L | 7.87% | 
insulin glulisine: prandial insulin, comparative treatment once daily or three times daily |  |  | significant weight gain
